Test results: US9089640B2, “Apparatus and kit for encapsulating at least one compound for therapeutic and/or diagnostic use in erythrocytes” (ERYDEL S.p.A., priority 2010, dated 2015)

Tested on: autologous IgGs
Experiment: Recognition of treated erythrocytes by autologous IgGs (targeting to macrophages)
Format: cell-based
Experimental: The targeting to macrophages of erythrocytes containing drugs and/or contrast means can be achieved by the apparatus shown in the figure following a procedure similar to that used in example 1. When fludarabine was used as an encapsulating agent, a final concentration of 0.8 mM was obtained. The erythrocytes treated in this way were recognised by autologous IgGs in percentages over 80% the total number of processed cells.

Nc1nc(F)nc2c1ncn2[C@@H]1O[C@H](CO)[C@@H](O)[C@@H]1O [fludarabine]
Treated erythrocytes recognised by autologous IgGs, percentage of total number of processed cells: over 80%
